Laboratory results from patent publication US7977434B2, “Polymeric hydrophobic aminonitrile quats used for bleach activation” (BASF Aktiengesellschaft, priority 2005, dated 2011).

Assays:
Conditions in all cases: 25° C., 1% bleach activator, 15% by weight sodium percarbonate in color laundry detergent, 30 min wash
[1] = Launderometer bleaching test, curry stain
Experimental: (§1) Standard test in a launderometer with 5% activator addition at 25° C. and 50° C. of tea-, red wine-, grass- and curry-stained fabric. In addition, the removal of triolein and olive oil stains from cotton fabric is investigated. To this end, triolein and olive oil are dyed with 0.1% Sudan red 7 B (=Solvent Red 19). This dye is dissolved and homogenized beforehand with gentle warming. The preparation is effected by adding dropwise with a pipette, in the course of which the test fabric is stretched. 0.1 g of the solution is added dropwise and spreads on the fabric overnight. All test specimens are determined twice.
(§2) To this end, 15% by weight of bleach (sodium percarbonate) and 1.2 and 5% by weight of the appropriate activator are mixed into a commercial color laundry detergent which is homogenized in dry form.
(§3) The bleaching experiments in the launderometer are evaluated by reflectance measurement and calculation of the bleaching action on the bleachable stains used (tea, red wine, grass, curry, triolein and olive oil). The standard deviation of the reflectance R is <1%.
(§4) Mixing of stock hardness 1 (Ca^+++Mg^++) and stock hardness 2 (NaHCO3), both 0.8 mol/l in each case. Hard water is tested before use. The water hardness is determined by using Titriplex solution. • Stock hardness 1 94.09 g of calcium chloride 2H2O and 32.53 g of magnesium chloride. […]

[2] = Launderometer test, removal of olive oil stain dyed with Sudan red 7 B
Experimental: as §1, §2, §3, §4

[3] = Launderometer bleaching test, tea stain
Experimental: as §1, with “Standard test in a launderometer with 5% activator addition at 25° C. and 50° C. of tea-, red wine-, grass- and curry-stained fabric.” left out
(§5) The bleaching experiments in the launderometer are evaluated by reflectance measurement and calculation of the bleaching action on the bleachable stains used (tea, red wine, grass, curry, triolein and olive oil).
(§6) Commercially unavailable stains such as tea, chlorophyll were premeasured individually.
as §4

[4] = Launderometer bleaching test, grass stain
Experimental: as §1, with “Standard test in a launderometer with 5% activator addition at 25° C. and 50° C. of tea-, red wine-, grass- and curry-stained fabric.” left out
as §5, §6, §4

[5] = Launderometer bleaching test, red wine stain
Experimental: as §1, §2
The bleaching experiments in the launderometer are evaluated by reflectance measurement and calculation of the bleaching action on the bleachable stains used (tea, red wine, grass, curry, triolein and olive oil). The standard deviation of the reflectance R is <1%. […]
Mixing of stock hardness 1 (Ca^+++Mg^++) and stock hardness 2 (NaHCO3), both 0.8 mol/l in each case. […] The water hardness is determined by using Titriplex solution. • Stock hardness 1 94.09 g of calcium chloride 2H2O and 32.53 g of magnesium chloride. […]

[6] = Launderometer test, removal of triolein stain dyed with Sudan red 7 B
Experimental: as §1, §2, §3, §4

| SMILES | reflectance, Curry [1] [%] | reflectance, Olive oil [2] [%] | reflectance, Tea [3] [%] | reflectance, Grass [4] [%] | reflectance, Red wine [5] [%] | reflectance, Triolein [6] [%] |
| --- | --- | --- | --- | --- | --- | --- |
| C[N+]1(CC#N)CCOCC1.O=S(=O)([O-])O [BMG, methylmorpholinioacetonitrile hydrogensulfate] | 69.2 | 39.9 | 48.5 | 40.1 | 61.8 | 42.2 |
| CC(=O)N(CCN(C(C)=O)C(C)=O)C(C)=O [TAED, tetraacetylethylenediamine] | 65.1 | 40.0 | 34.5 | 39.2 | 58.4 | 42.6 |
